Experimental data taken from BindingDB's records for doi:10.1016/j.bmcl.2003.10.070 (Roche Palo Alto, 2004).

Target: Prostacyclin receptor (Rattus norvegicus) (UniProt P43253)
Test: Binding affinity towards prostacyclin receptor on rat NG-108-15 neuroblastoma cells, using [3H]iloprost as a radioligand

Sequence of Prostacyclin receptor (Rattus norvegicus) (P43253 whole entry, looked up): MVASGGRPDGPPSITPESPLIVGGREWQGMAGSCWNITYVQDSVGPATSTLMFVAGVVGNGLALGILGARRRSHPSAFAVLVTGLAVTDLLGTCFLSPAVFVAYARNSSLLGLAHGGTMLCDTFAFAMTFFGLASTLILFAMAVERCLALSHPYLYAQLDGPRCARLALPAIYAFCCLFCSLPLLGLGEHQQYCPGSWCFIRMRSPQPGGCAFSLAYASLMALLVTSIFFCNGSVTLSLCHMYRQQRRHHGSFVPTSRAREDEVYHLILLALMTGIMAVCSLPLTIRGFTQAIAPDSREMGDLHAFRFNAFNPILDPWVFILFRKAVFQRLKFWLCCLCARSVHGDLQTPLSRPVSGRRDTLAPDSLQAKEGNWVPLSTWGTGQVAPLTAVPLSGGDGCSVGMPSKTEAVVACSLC

| SMILES | Ki |
| --- | --- |
| Cc1ccc(Sc2ccc(NC3=NCCN3)cc2)cc1 | 100 nM |
| COc1ccccc1Sc1ccc(NC2=NCCN2)cc1 | 3980 nM |
| COc1ccc(Cc2ccc(NC3=NCCN3)cc2)cc1 | 25 nM |
| Clc1cccc(Cl)c1Sc1ccc(NC2=NCCN2)cc1 | 631 nM |
| COc1ccc(Sc2cccc(NC3=NCCN3)c2)cc1 | 3980 nM |
| c1cc(SC2CCCCC2)ccc1NC1=NCCN1 | 3160 nM |
| COc1ccc(Sc2ccc(NC3=NC(C)CN3)cc2)cc1 (configuration not stated) | 63 nM |
| O=[N+]([O-])c1ccc(Sc2ccc(NC3=NCCN3)cc2)cc1 | 316 nM |
| CCOC(=O)c1ccc(Sc2ccc(NC3=NCCN3)cc2)cc1 | 50 nM |
| COc1ccc(Sc2ccc(CC3=NCCN3)cc2)cc1 | 5010 nM |
| CC(C)c1ccc(Sc2ccc(NC3=NCCN3)cc2)cc1 | 251 nM |
| COc1ccc(Sc2ccccc2NC2=NCCN2)cc1 | 631 nM |
| COc1ccc(N(C)c2ccc(NC3=NCCN3)cc2)cc1 | 501 nM |
| COc1ccc(Sc2ccc(CN3CCCC3)cc2)cc1 | 10000 nM |
| COc1ccc(Sc2ccc(NC3=NCCCCN3)cc2)cc1 | 1260 nM |
| COc1ccc(S(=O)(=O)c2ccc(NC3=NCCN3)cc2)cc1 | 158 nM |
| COc1ccc(Sc2ccc(NC3=NC(C)(C)CN3)cc2)cc1 | 631 nM |
| CCOc1ccc(Sc2ccc(NC3=NCCN3)cc2)cc1 | 40 nM |
| c1ccc2c(c1)sc1ccc(NC3=NCCN3)cc12 | 3160 nM |

| SMILES | Ki |
| --- | --- |
| COc1ccc(OC)c(Sc2ccc(NC3=NCCN3)cc2)c1 | 794 nM |
| COc1cccc(Sc2ccc(NC3=NCCN3)cc2)c1 | 398 nM |
| COc1ccc(-c2ccc(NC3=NCCN3)cc2)cc1 | 1000 nM |
| CS(=O)(=O)Nc1ccc(Sc2ccc(NC3=NCCN3)cc2)cc1 | 79 nM |
| c1ccc(Sc2ccc(NC3=NCCN3)cc2)cc1 | 794 nM |
| CC/N=C(\N)Nc1ccc(Sc2ccc(OC)cc2)cc1 | 251 nM |
| COc1ccc(C(=O)c2ccc(NC3=NCCN3)cc2)cc1 | 316 nM |
| c1cc(Sc2ccc3c(c2)OCCO3)ccc1NC1=NCCN1 | 631 nM |
| COc1ccc(Oc2ccc(NC3=NCCN3)cc2)cc1 | 158 nM |
| Clc1ccc(Sc2ccc(CNC3=NCCN3)cc2)cc1 | 501 nM |
| COc1ccc(Sc2ccc(C(=N)N)cc2)cc1 | 1260 nM |
| Clc1ccc(Sc2ccc(NC3=NCCN3)cc2)cc1 | 79 nM |
| CC(C)Oc1ccc(Sc2ccc(NC3=NCCN3)cc2)cc1 | 32 nM |
| FC(F)(F)c1ccc(Sc2ccc(NC3=NCCN3)cc2)cc1 | 50 nM |
| COc1ccc(Sc2ccc(NC3=NCCCN3)cc2)cc1 | 79 nM |
| COc1ccc(Sc2ccc(C3=NCCN3)cc2)cc1 | 316 nM |
| CC(C)(C)c1ccc(Sc2ccc(NC3=NCCN3)cc2)cc1 | 398 nM |
| CC/N=C(\N)Nc1ccc(Sc2ccc(Cl)cc2)cc1 | 631 nM |
